Entries after “also recorded” stand apart in the source; their conditions may differ.
Key:
[1] = target: T1, isocitrate dehydrogenase (Sus scrofa, UniProt P33198); assay: Effect of complexing agents and other assay components on isocitrate dehydrogenase activity and its lead inhibition; assay type: biochemical, pig
T1 construct: purchased Sigma, St. Louis, Mo; ICD Type VI
T1 sequence (P33198 9-421): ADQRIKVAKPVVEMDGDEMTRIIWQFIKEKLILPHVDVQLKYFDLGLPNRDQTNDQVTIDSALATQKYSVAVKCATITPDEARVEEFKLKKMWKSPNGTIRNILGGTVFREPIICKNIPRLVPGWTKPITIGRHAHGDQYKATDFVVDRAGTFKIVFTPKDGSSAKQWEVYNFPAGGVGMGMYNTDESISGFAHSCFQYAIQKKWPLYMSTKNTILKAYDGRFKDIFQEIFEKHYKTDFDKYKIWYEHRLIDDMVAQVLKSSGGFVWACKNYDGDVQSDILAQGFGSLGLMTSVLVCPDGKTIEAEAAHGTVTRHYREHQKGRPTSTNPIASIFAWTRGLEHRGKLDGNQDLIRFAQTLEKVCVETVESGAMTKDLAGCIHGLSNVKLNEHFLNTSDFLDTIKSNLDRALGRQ
Text: Any agent used for displacing lead from the EDTA complex must not interfere with the function or activity of the enzyme employed for detection. […] Other auxiliary complexing agents may also be useful, including iminodiacetate, citrate and lithium ion. Li^+1 is known to weaken lead ion binding to bovine serum albumin and is contemplated to be effective in displacing Pb^2+ from the complex.
To solve this problem, the inventors have employed strong chelating reagents to sequester lead ion from interfering blood proteins subsequent to release of the lead from the selected chelating reagent.

[2] = tested on: alcohol dehydrogenase
Experimental: A bioelectrode was prepared from colloidal gold adsorbed alcohol dehydrogenase according the procedure of Example 2 for ICD. Measurements were made in the microcell as described in Example 1 using various concentrations of mercury.

[3] = colloidal gold/ADH bioelectrode

Row | Molecule | effect on ICDH activity / lead inhibition of ICDH [1] | other results
1 | C[n+]1c2ccccc2nc2ccccc21 [NMP-MS, N-methylphenazine methosulfate] | interfered with inhibition of the enzyme by added lead ion | 
2 | c1ccc(-c2ccccc2)cc1 [biphenyl] | do not interfere with electrochemical detection of lead by ICDH inhibition | 
3 | CC(=O)O [acetate] | the activity, stability and lead inhibition are not adversely affected | 
4 | c1ccc(-c2ccccn2)nc1 [dipyridyl] | the activity, stability and lead inhibition are not adversely affected | 
5 | mercury ion |  | detection range ([2]; colloidal gold adsorbed ADH biosensor): nanomolar range; amperometric response [2, 3]: linear response in at nanomolar levels; reversibility of inhibition [2, 3]: irreversible; specificity of inhibition ([2]; in the presence of added lead ion): specific for mercury in the presence of added lead ion
6 | [Mg+2] [Mg^+2] |  | effectiveness as cofactor of isocitric dehydrogenase ([1]; compared with Mn2+, millimolar concentrations): equally effective
7 | c1cnc2c(c1)ccc1cccnc12 [o-phenanthroline] | do not interfere with electrochemical detection of lead by ICDH inhibition; also recorded: the activity, stability and lead inhibition are not adversely affected | 
8 | O=C(O)[C@@H](S)[C@@H](S)C(=O)O [DMSA, meso 2,3-dimercaptosuccinic acid] | do not interfere with electrochemical detection of lead by ICDH inhibition; also recorded: the activity, stability and lead inhibition are not adversely affected | 
9 | O=C(O)CN(CCN(CC(=O)O)CC(=O)O)CC(=O)O [EDTA] | adversely affect lead ion inhibition of isocitric dehydrogenase | 

— patent publication US5368707A, “Convenient determination of trace lead in whole blood and other fluids” (priority 1993, dated 1994)
